Test results reported in patent US20190046478A1, “BIOLOGICAL MARKER FOR IDENTIFYING CANCER PATIENTS FOR TREATMENT WITH A BIGUANIDE” (THE ROYAL INSTITUTION FOR THE ADVANCEMENT OF …, priority 2017, published 2019).
pIC50: −log10 of the molar value. Read-outs that look alike come from different tables or passages of the source.

Columns and labels:
Raji cells = assay: Cell viability assay in Raji lymphoma cells; assay type: cell-based, human; details: 48 hours, FIG. 3B
Description: (§1) Eμ-Myc cells were cultured on a layer of irradiated Ink4a-null MEF feeder cells in DMEM and IMDM medium (50:50 mix) supplemented with 10% fetal bovine serum (FBS), 20000 U/mL penicillin, 7 mM streptomycin, 2 mM glutamine, and β-mercaptoethanol. Raji cells were cultured in RPMI medium supplemented with 10% FBS, 20000 U/mL penicillin, 7 mM streptomycin, and 2 mM glutamine. Cells were grown at 37° C. in a humidified atmosphere supplemented with 5% (v/v) CO2.
(§2) Cells were seeded at a density of 1×10^5 cells/mL in 3.5 cm dishes, and cell counts determined via trypan blue exclusion using a TC20 Automated Cell Counter (Biorad). For viability measurements, cells were stained with Fixable Viability Dye eFluor 780 (eBioscience), and analyzed using a Gallios flow cytometer (Beckman Coulter, Fullerton, Calif.) and FlowJo software (Tree Star, Ashland, Oreg.).

Eμ-Myc cells [1] = assay: Seahorse XF96 respirometry (OCR and ECAR); assay type: cell-based, mouse; details: for Oxygen consumption of +17˜92 cells / Oxygen consumption of control cells: 100 μM phenformin or 10 μM Compound 1, after roughly four hours; for pIC50: after two hours treatment, read-out: Dose that produced a roughly 50% decrease in OCR from baseline; for Oxygen consumption rate (OCR) / Extracellular acidification rate (ECAR): acute treatment, across a range of doses; for Oxygen consumption rate (OCR): FIG. 2A, 8A; for Extracellular acidification rate (ECAR): FIG. 2B, 8B
Description: 7.5×10^4 lymphoma cells were plated per well of an XF96 Seahorse plate in 140 μL of unbuffered DMEM containing 25 mM glucose and 2 mM glutamine, followed by centrifugation at 500×g for five minutes. Seahorse plates were pre-coated with poly-D-lysine (Sigma-Aldrich) to enhance cell adherence. XF assays consisted of sequential mix (3 min), pause (3 min), and measurement (5 min) cycles, allowing for determination of OCR and ECAR every […]. […] For media metabolite determination, cells were seeded at 1×10^5 cells/mL in 3.5 cm plates, and cultured for two days prior to harvesting medium. Culture medium was analyzed for extracellular metabolites (glucose and lactate) using a BioProfile Analyzer (NOVA Biomedical) and normalized to cell number.

Eμ-Myc cells [2] = assay: Mitochondrial ROS by MitoSox staining and flow cytometry; assay type: cell-based, mouse; details: 2 hours, 100 μM phenformin or 10 μM Compound 1, FIG. 5A
From the text: Statistics for all figures are as follows: *, p<0.05; **, p<0.01; ***, p<0.001.

Eμ-Myc cells [3] = assay: GC-MS analysis of metabolite abundance and 13C-glutamine labelling; assay type: cell-based, mouse; details: for 13C-glutamine incorporation into glutamate and α-ketoglutarate, +17˜92 versus treated control cells: 100 μM phenformin or 10 μM Compound 1, FIG. 4B; for Aspartate abundance: +17˜92 and control cells, 2 hours, 100 μM phenformin or 10 μM Compound 1, FIG. 4A
Description: Cellular metabolites were extracted and analyzed by GC-MS. […] Cells were washed twice with saline, then lysed in ice-cold 80% methanol and sonicated. For GC-MS analysis, D-myristic acid (750 ng/sample) was added to metabolite extracts as an internal standard prior to drying samples under a N2 stream. […] The oven program for all metabolite analyses started at 60° C. held for 1 min, then increasing at a rate of 10° C./min until 320° C. Bake-out was at 320° C. for 10 min. […] Mass isotopomer distribution for TCA cycle intermediates was determined using a custom algorithm developed at McGill University. After correction for natural ^13C abundances, a comparison was made between non-labeled (^12C) and ^13C-labeled abundances for each metabolite. Metabolite abundance was expressed relative to the internal standard (D-myristic acid) and normalized to cell number.

Eμ-Myc lymphoma cells = details: for Protection of viability of +17˜92 cells by pyruvate supplementation, lower doses / Protection of viability of +17˜92 cells by pyruvate supplementation, higher concentrations: 1 mM pyruvate, FIG. 5D, 10C; for Protection of viability of +17˜92 cells by pyruvate supplementation, lower doses: 10 μM Compound 1 or 30 μM phenformin; for Protection of viability of +17˜92 cells by pyruvate supplementation, higher concentrations: 100 μM Compound 1 or 300 μM phenformin
Description: as §1, §2

[4] = tested on: Eμ-Myc lymphoma cells (control or +17˜92); assay: Tumor xenograft assay, survival of nude mice injected with lymphoma cells; assay type: in vivo, CD-1 nude mice; details: drinking water ad lib, 0.9 mg/mL phenformin or 0.8 mg/mL Compound 1, FIG. 6B
Description: Lymphoma cells were resuspended in HBSS at a concentration of 5×10^6 cells/mL, and 10^6 cells/200 μL were injected intravenously into CD-1 nude mice (Charles River).

AMPK = assay: Immunoblot for pAMPK (T172) and total AMPK; assay type: cell-based, mouse; details: two hours, 100 μM phenformin or 10 μM Compound 1, FIG. 3C
From the text: Lymphoma cell lines were subjected to SDS-PAGE and immunoblotting using CHAPS and AMPK lysis buffers. Primary antibodies against β-actin, 4EBP (total, phospho-T36/47, and phospho-S65), rS6 (total and p S235/236), Raptor (total and pS792), and AMPKα (total and phospho-T172) were obtained from Cell Signaling Technology (Danvers, Mass.). Primary antibody against LKB1 (Ley 37D/G6) was obtained from Santa Cruz Biotechnology (Dallas, Tex., USA). For qPCR quantification of mature miRNAs, Qiazol was used isolate RNA, miRNEasy Mini kit was used to purify miRNAs and total mRNA, and cDNA synthesized using the miScript II RT kit (Qiagen). Quantitative PCR was performed using the SensiFAST SYBR Hi-ROX kit (Bioline) and an AriaMX Real-Time PCR system (Agilent Technologies). miScript primer assays (Qiagen) were used to detect mature miRNAs of the miR-17˜92 cluster, with miRNA expression normalized relative to U6 RNA levels.

Eμ-Myc cells [5] = assay: LC-MS analysis of GSH/GSSG, NADP+/NADPH and NAD+/NADH ratios; assay type: cell-based, mouse; details: 2 hours
Description: Aqueous supernatants were dried by vacuum centrifugation with sample temperature maintained at −4° C. (Labconco, Kansas City Mo., USA). Pellets were subsequently resuspended in 25 μL of H2O as the injection buffer. Chromatographic separation was performed on a Scherzo SM-C18 column 3 μm, 3.0×150 mm (Imtakt Corp, JAPAN). The chromatographic gradient started at 100% mobile phase A (0.2% formic acid in water) with a 2 min hold followed with a 6 min gradient to 80% B (0.2% formic acid in MeOH) at a flow rate of 0.4 mL/min. This was followed by a 5 min hold time at 100% mobile phase B and a subsequent re-equilibration time (6 min) before next injection. […] Analyte ionization was accomplished using ESI in positive ionization mode. […] MS data were acquired in full scan mode mass range: m/z 100-1000; scan time: 1.4 s; data collection: centroid and profile modes. […] For all LC/MS analyses, 1 μL of sample was injected. The column temperature was maintained at 10° C. Data were quantified by integrating the area under the curve of each compound using MassHunter Quant (Agilent Technologies, Santa Clara, Calif., USA). Each metabolite's accurate mass ion was extracted (EIC) using a 10 ppm window. Relative concentrations were determined from external calibration curves.

[6] = 100 μM phenformin or 10 μM Compound 1, FIG. 5C

Question: How did the “Viability of Raji cells with or without miR-17˜92 overexpression over a range of doses” value (Raji cells) turn out when `[H]/N=C(/N)N/C(=N/[H])NCCc1ccccc1` [phenformin, reference compound] was run?
Answer: followed a similar trend, albeit at higher doses

Question: What about the “Oxygen consumption of +17˜92 cells” value (Eμ-Myc cells [1]) of the same compound?
Answer: never eliminated

Question: What about the “Oxygen consumption of control cells” value (Eμ-Myc cells [1]) of the same compound?
Answer: effectively non-respiring

Question: And the pIC50 (Eμ-Myc cells [1]; Mus musculus, 2 h)?
Answer: 4.00

Question: What about the “Oxygen consumption rate (OCR)” value (Eμ-Myc cells [1]) of the same compound?
Answer: decreased

Question: What about the “Extracellular acidification rate (ECAR)” value (Eμ-Myc cells [1]) of the same compound?
Answer: commensurate increases

Question: And the “Mitochondrial ROS in +17˜92 cells” value (Eμ-Myc cells [2])?
Answer: approached significance

Question: What about the “Mitochondrial ROS levels in control cells” value (Eμ-Myc cells [2]) of the same compound?
Answer: neither phenformin nor Compound 1 treatment were sufficient to increase

Question: And the “13C-glutamine incorporation into glutamate and α-ketoglutarate, +17˜92 versus treated control cells” value (Eμ-Myc cells [3])?
Answer: not

Question: And the Aspartate abundance (Eμ-Myc cells [3])?
Answer: reduced aspartate abundance

Question: And the “Viability of Δ/Δ (miR-17˜92 deleted) versus fl/fl cells” value (Eμ-Myc lymphoma cells; 48 hour treatment, FIG. 1A)?
Answer: more resistant

Question: What about the “Protection of viability of +17˜92 cells by pyruvate supplementation, lower doses” value (Eμ-Myc lymphoma cells; 48 hours) of the same compound?
Answer: some protective benefit

Question: And the “Protection of viability of +17˜92 cells by pyruvate supplementation, higher concentrations” value (Eμ-Myc lymphoma cells; 48 hours)?
Answer: not apparent

Question: What about the “Sensitivity (viability) of +17˜92 versus control Eμ-Myc lymphoma cells” value (Eμ-Myc lymphoma cells; 48 hours, FIG. 1C) of the same compound?
Answer: significantly more sensitive than controls

Question: What about the “Lifespan of mice bearing +17˜92 cells” value [4] of the same compound?
Answer: significantly prolonged the lifespan

Question: And the “AMPK phosphorylation in +17˜92 cells” value (AMPK)?
Answer: reduced AMPK phosphorylation than control cells

Question: Which “Viability of Raji cells with or without miR-17˜92 overexpression over a range of doses” value (Raji cells) does the source give for `N=C(NC(=N)N1CCCC1)Nc1cccc(OC(F)(F)F)c1` [Compound 1, N1-pyrrolidine-N5-(3-trifluoromethoxy)phenyl biguanide] here?
Answer: followed a similar trend, albeit at higher doses

Question: What about the “Oxygen consumption of +17˜92 cells” value (Eμ-Myc cells [1]) of the same compound?
Answer: never eliminated

Question: What about the “Oxygen consumption of control cells” value (Eμ-Myc cells [1]) of the same compound?
Answer: effectively non-respiring

Question: And the “Oxygen consumption rate (OCR)” value (Eμ-Myc cells [1])?
Answer: decreased

Question: What about the “Extracellular acidification rate (ECAR)” value (Eμ-Myc cells [1]) of the same compound?
Answer: commensurate increases

Question: And the pIC50 (Eμ-Myc cells [1])?
Answer: 5.00

Question: And the “Speed of OCR reduction versus equivalent doses of phenformin” value (Eμ-Myc cells [1]; higher doses, 5 min post-injection, FIG. 2C)?
Answer: more rapid reductions in OCR

Question: What about the “Extent of OCR reduction versus equivalent doses of phenformin” value (Eμ-Myc cells [1]; lower doses, longer time periods (260 min), FIG. 2D) of the same compound?
Answer: more profound reductions in OCR

Question: What about the “Mitochondrial ROS in +17˜92 cells” value (Eμ-Myc cells [2]) of the same compound?
Answer: significantly increased mitochondrial ROS

Question: And the “Mitochondrial ROS levels in control cells” value (Eμ-Myc cells [2])?
Answer: neither phenformin nor Compound 1 treatment were sufficient to increase

Question: And the “13C-glutamine incorporation into glutamate and α-ketoglutarate, +17˜92 versus treated control cells” value (Eμ-Myc cells [3])?
Answer: more significant reduction

Question: And the Aspartate abundance (Eμ-Myc cells [3])?
Answer: reduced aspartate abundance

Question: And the “Protection of viability of +17˜92 cells by pyruvate supplementation, lower doses” value (Eμ-Myc lymphoma cells; 48 hours)?
Answer: some protective benefit

Question: And the “Protection of viability of +17˜92 cells by pyruvate supplementation, higher concentrations” value (Eμ-Myc lymphoma cells; 48 hours)?
Answer: not apparent

Question: What about the “Viability of +17˜92 cells at doses not toxic in control cells” value (Eμ-Myc lymphoma cells; 48 hours, FIG. 3A) of the same compound?
Answer: viability of +17˜92 cells was affected

Question: What about the “Lifespan of mice bearing +17˜92 cells” value [4] of the same compound?
Answer: significantly prolonged the lifespan

Question: And the “AMPK phosphorylation in +17˜92 cells” value (AMPK)?
Answer: largely unaffected

Question: What about the GSH/GSSG ratio (Eμ-Myc cells [5]; 100 μM phenformin or 10 μM Compound 1, FIG. 5B) of the same compound?
Answer: no significant changes

Question: What about the “NADP+/NADPH ratio in +17˜92 cells” value (Eμ-Myc cells [5]; [6]) of the same compound?
Answer: increase their NADP+/NADPH ratio

Question: And the “NADP+/NADPH ratio in control cells” value (Eμ-Myc cells [5]; [6])?
Answer: not control cells
